Legend:
animal models of stroke = conditions: administered 24-hours after stroke; cited from earlier work
[1] = brain distribution in pre-clinical studies; assay type: in vivo
Excerpt: The inhibition of MAPK by VX-745 blocks the downstream synthesis of inflammatory cytokines TNF-α and IL-1β. […] VX-745 preferentially distributes to the brain with drug concentrations in the brain in pre-clinical studies being approximately two-fold higher than in the blood. Stroke

[2] = system: cytokine production (TNF-α and IL-1β) in whole blood; conditions: inhibition of cytokine production (anti-inflammatory activity); cited from earlier work
[3] = system: rat model of stroke (transient MCAO); assay: tMCAO rat stroke model: stepping test; assay type: in vivo; conditions: Groups 2M (1.5 mg/kg) and 3M (4.5 mg/kg), PO twice a day; Week 4 up to Week 6
Protocol: (§1) Group 1M: 20 tMCAO animals treated twice-a-day with vehicle from Day 3 (day 1 being day of stroke surgery) to Day 42 (via PO gavage)
(§2) Group 2M: 22 tMCAO animals treated twice-a-day with VX-745 (1.5 mg/kg) from Day 3 (day 1 being day of stroke surgery) to Day 42 (via PO gavage)
(§3) Group 3M: 21 tMCAO animals treated twice-a-day with VX-745 (4.5 mg/kg) from Day 3 (day 1 being day of stroke surgery) to Day 42 (via PO gavage)
(§4) Transient middle cerebral artery occlusion was performed according to the method described in R. Schmid-Elsaesser et al., Stroke, 29(10):2162-2170 (1998). The right Common Carotid Artery (CCA) was exposed through a midline neck incision and carefully dissected free from surrounding nerves and fascia—from its bifurcation to the base of the skull. The occipital artery branches of the ECA (External Carotid Artery) were then isolated, and these branches were dissected and coagulated. […]
Animals were tested for forelimb akinesia in a stepping test (ST). The animal was held with its hind limbs fixed in one hand and the forelimb, not to be monitored, in the other, while the unrestrained fore-paw touches the table. The number of adjusting steps were counted while the animal was moved sideways along the table surface (85 cm during approximately five seconds), in the forehand & backhand direction for both forelimbs. […]

[4] = system: rat model of stroke (transient MCAO); assay: tMCAO rat stroke model: Neuroscore (mNSS); assay type: in vivo; conditions: Groups 2M (1.5 mg/kg) and 3M (4.5 mg/kg), PO twice a day from Day 3 to Day 42
Protocol: as §1, §2, §3
as §4, with “coagulated. The ECA was dissected further distally and coagulated along with the terminal lingual and maxillary artery branches, which was then divided. The ICA (Internal Carotid Artery) was isolated and carefully separated from the adjacent vagus nerve, and the pterygopalatine artery was ligated close to its origin with a 5-0 nylon suture (SMI, Belgium).” for “coagulated.”

cytokine signaling = conditions: cited from earlier work
IL-1β = IL-1β ELISA of brain at termination of tMCAO study; assay type: in vivo, rat; conditions: right minus left hemisphere; Groups 2M and 3M versus 1M; n=18 per group
Excerpt: The brains of all animals were harvested on Day 44. Rats were sacrificed by CO2 inhalation. Brains were harvested from all animals in each group, divided to left and right hemisphere, weighed, and snap frozen.
Brains were harvested at study termination. Each brain was dissected into two hemispheres and each hemisphere was weighed and enclosed into tubes marked Left or Right. Each tube was immediately frozen in liquid nitrogen and stored at (−80)° C. The tissues were defrosted and homogenized in 1 ml/200 mg tissue of 20 mM Tris-HCL pH 7.4 containing a protease inhibitor cocktail (50 μl/ml). Samples were centrifuged at 10,000 g for 15 min at 4°. Clear supernatants were aliquoted (150 μl/aliquot) and stored at (−80)° C. until ELISA assays were performed. ELISA assay was executed according to kit instructions. Standards and samples were tested in duplicates.
Following study termination, animals were also tested for IL-1β brain levels using the ELISA system (see FIG. 8 for standard curves). The variability of the results was too large to allow definitive conclusions. All the results below the Lower Limit of Quantification (LLOQ) were assigned the LLOQ value of 5 pg/ml. Then, results for the uninjured left side were subtracted from the results of the right side. The distribution for individual rats is given in the figure below (n=18 in each of the study groups) (FIG. 9).

[5] = treatment of rheumatoid arthritis; cited from earlier work
[6] = system: rat model of stroke (transient MCAO); assay: tMCAO rat stroke model: forelimb placement test; assay type: in vivo; conditions: Groups 2M (1.5 mg/kg) and 3M (4.5 mg/kg), PO twice a day; Week 4 and Week 6
Protocol: as §1, §2, §3
as §4, with “coagulated. The ECA was dissected further distally and coagulated along with the terminal lingual and maxillary artery branches, which was then divided. The ICA (Internal Carotid Artery) was isolated and carefully separated from the adjacent vagus nerve, and the pterygopalatine artery was ligated close to its origin with a 5-0 nylon suture (SMI, Belgium).” for “coagulated.”

[7] = tMCAO study: body weight, clinical signs, mortality; assay type: in vivo, rat
Protocol: Altogether 76 adult male Sprague Dawley rats, purchased from Harlan Laboratories, (Israel), and weighing 300-350 g were used for the experiment. Animals were housed at a standard temperature (20-24° C.) and in a light-controlled environment (12 hours light/12 hours dark) with ad libitum access to food and water.
as §1, §2, §3
Animals were handled at a minimum for three days before the surgery. Baseline measures were taken before stroke was induced. Stroke surgery occurred on Day 1. On Day 2, 24 hours post-stroke surgery, Neuroscore testing was performed. Only animals reaching and exceeding Neuroscore criteria was included in the study. On Days 3-42, treatment with vehicle or VX-745 was administered twice a day for 40 days via PO (oral) gavage for all groups. Behavioral tests for all groups were conducted on weeks 4 and 6. Animals were sacrificed on Day 44 and brains were harvested.
Statistical analysis was performed when applicable by two-way ANOVA for repeated measures, followed by Bonferroni post-hoc tests for all the data presented in the results section (*p<0.05; **p<0.01; ***p<0.001).

[8] = system: rat model of stroke (transient MCAO); assay: tMCAO rat stroke model: body swing test; assay type: in vivo
Protocol: as §1, §2, §3, §4
The rat was held approximately one inch from the base of its tail. […] A swing was recorded whenever the rat moved its head out of the vertical axis to either side. Before attempting another swing, the rat had must return to the vertical position for the next swing to be counted. Twenty (20) total swings were counted. […] Body swing scores were expressed as a percentage of rightward over total swings. […]

[9] = system: IL-1β production and signaling; conditions: cited from earlier work

| SMILES | effect on recovery from neurologic deficit (animal models of stroke) | drug concentrations in the brain versus in the blood [1] | whole blood IC50 [2] [ng/mL] | stepping test (left forelimb), number of steps versus vehicle control group 1M [3] | neuroscore delta (change from Day 2 to Week 4 or Week 6) versus vehicle control group 1M [4] | absolute neuroscore versus vehicle control group 1M ([4]; Weeks 4 and 6) | IC50 for inhibition of cytokine signaling relative to IC50 for cytokine production (cytokine signaling) | IL-1β levels in the brain at study termination, between the groups (IL-1β) | mean blood concentration [5] | forelimb placement test score versus vehicle control group 1M [6] | body weight, differences between groups ([7]; all groups through the study, two-way ANOVA, Bonferroni) | rats that died after treatment initiation ([7]; group 2M (1.5 mg/kg), within two weeks of treatment initiation) | general clinical signs, differences between groups ([7]; tMCAO rats, 1.5 and 4.5 mg/kg PO twice a day) | body swing test (difference between left turn and right turn) versus vehicle control group 1M ([8]; Groups 2M (1.5 mg/kg) and 3M (4.5 mg/kg), PO twice a day) | body swing test, extent of recovery ([8]; particularly in the 4.5 mg/kg dose group) | IL-1β production and signaling in vitro [9] |
| --- | --- | --- | --- | --- | --- | --- | --- | --- | --- | --- | --- | --- | --- | --- | --- | --- |
| C[S+]([O-])c1ccc(-c2nc(-c3ccc(F)cc3)c(-c3ccncc3)[nH]2)cc1 (stereo not shown) [SB203850] | no significant effect |  |  |  |  |  |  |  |  |  |  |  |  |  |  |  |
| O=c1ncn2nc(Sc3ccc(F)cc3F)ccc2c1-c1c(Cl)cccc1Cl [VX-745] |  | approximately two-fold | 65 to 80 | statistically significant difference | statistically significant difference | statistically significant difference | half that for cytokine production | No statistically significant differences | approximately 75 ng/mL | Statistically significant differences | No statistically significant differences | one | no observed differences | statistically significant difference | near normalization | inhibits IL-1β production and signaling in vitro |

From patent publication US9427439B1, “Methods and compositions for recovery from stroke” (EIP Pharma, LLC, priority 2015, dated 2016)
